Measured values taken from patent US12187723B2 (BRISTOL-MYERS SQUIBB COMPANY, priority 2019, dated 2025).

Experiments:
human TLR8 = biological target: T1, human TLR8 (Homo sapiens, UniProt Q9NR97); test: TLR8 inhibition reporter assay (HEK-Blue SEAP); type: cell-based; details: HEK-Blue cells overexpressing human TLR8, R848 15.9 μM, 22 hour incubation
T1 construct: host or cells: HEK-Blue cells
T1 sequence (Q9NR97 27-1041): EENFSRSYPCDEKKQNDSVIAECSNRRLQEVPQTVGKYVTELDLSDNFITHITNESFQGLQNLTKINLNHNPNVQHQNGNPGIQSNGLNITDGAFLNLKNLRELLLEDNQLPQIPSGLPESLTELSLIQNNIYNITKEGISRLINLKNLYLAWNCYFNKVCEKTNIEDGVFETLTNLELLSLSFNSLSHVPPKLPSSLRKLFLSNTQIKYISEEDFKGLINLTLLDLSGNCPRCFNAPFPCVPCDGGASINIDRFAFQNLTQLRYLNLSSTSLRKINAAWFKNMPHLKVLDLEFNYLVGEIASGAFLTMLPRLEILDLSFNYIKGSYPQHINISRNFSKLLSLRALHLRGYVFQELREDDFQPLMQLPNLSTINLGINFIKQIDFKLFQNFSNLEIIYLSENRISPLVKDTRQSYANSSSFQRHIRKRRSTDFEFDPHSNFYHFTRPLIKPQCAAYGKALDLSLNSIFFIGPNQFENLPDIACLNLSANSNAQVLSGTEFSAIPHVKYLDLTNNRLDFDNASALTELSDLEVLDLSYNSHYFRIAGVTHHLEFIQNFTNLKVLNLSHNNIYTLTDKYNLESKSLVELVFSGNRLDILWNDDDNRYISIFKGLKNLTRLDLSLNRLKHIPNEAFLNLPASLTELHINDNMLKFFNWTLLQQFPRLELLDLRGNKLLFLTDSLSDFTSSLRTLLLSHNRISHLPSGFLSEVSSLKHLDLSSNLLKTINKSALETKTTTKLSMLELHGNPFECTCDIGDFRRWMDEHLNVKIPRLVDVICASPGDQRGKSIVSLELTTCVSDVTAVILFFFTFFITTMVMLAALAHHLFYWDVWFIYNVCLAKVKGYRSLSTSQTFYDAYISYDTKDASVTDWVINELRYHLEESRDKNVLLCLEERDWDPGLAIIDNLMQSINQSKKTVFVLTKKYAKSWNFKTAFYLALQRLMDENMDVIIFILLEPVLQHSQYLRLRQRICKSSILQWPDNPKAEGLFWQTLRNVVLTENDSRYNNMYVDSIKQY
Outline: (§1)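 Human TLR7/8/9 HEK-Blue reporter lines; dose range 0.05 nM–50 μM; 30 min RT preincubation; stimulus gardiquimod 7.5 μM / R848 15.9 μM / ODN2006 5 nM respectively; 22 h, 37 °C; SEAP detected colorimetrically.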

human TLR9 = biological target: T2, human TLR9 (Homo sapiens, UniProt Q9NR96); test: TLR9 inhibition reporter assay (HEK-Blue SEAP); type: cell-based; details: HEK-Blue cells overexpressing human TLR9, ODN2006 5 nM, 22 hour incubation
T2 construct: host or cells: HEK-Blue cells
T2 sequence (Q9NR96 26-1032): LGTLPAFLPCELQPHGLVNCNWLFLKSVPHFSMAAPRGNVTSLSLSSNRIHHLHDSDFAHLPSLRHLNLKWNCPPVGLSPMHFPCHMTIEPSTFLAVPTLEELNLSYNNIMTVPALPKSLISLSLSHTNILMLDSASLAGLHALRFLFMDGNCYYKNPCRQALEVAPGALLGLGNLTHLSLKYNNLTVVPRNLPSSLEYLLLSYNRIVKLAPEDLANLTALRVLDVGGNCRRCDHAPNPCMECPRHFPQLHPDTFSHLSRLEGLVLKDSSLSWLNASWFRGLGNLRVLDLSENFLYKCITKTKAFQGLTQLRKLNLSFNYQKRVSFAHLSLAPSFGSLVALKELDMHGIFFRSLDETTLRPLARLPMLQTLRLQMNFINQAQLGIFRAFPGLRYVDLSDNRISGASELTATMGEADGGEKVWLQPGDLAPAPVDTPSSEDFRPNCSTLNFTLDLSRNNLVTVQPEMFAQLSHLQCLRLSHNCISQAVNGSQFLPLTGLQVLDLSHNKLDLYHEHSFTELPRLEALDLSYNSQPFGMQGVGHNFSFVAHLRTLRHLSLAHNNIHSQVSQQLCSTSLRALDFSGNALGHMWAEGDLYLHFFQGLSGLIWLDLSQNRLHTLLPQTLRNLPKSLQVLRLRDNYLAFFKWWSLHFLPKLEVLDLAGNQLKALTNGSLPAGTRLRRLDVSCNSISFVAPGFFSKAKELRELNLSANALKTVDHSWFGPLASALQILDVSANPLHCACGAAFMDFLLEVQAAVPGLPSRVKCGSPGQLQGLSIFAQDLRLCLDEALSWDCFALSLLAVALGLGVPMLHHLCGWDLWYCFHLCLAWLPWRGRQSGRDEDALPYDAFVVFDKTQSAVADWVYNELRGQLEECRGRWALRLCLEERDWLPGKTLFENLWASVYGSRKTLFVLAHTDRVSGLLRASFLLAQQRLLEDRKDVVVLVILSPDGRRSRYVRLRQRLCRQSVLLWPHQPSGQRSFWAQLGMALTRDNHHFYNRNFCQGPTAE
Outline: as §1

IC50 (human TLR8) | IC50 (human TLR9) | Structure (SMILES)
2.31 nM | 7940 nM | CCc1cc2c(cc1-c1cc(OC)c3ncnn3c1)[nH]c(=O)n2[C@@H]1CCCN(CC2CC2)C1 [Example 182, (R)-1-(1-(cyclopropylmethyl)piperidin-3-yl)-6-ethyl-5-(8-methoxy-[1,2,4]triazolo[1,5-a]pyridin-6-yl)-1,3-dihydro-2H-benzo[d]imidazol-2-one]
1.75 nM | 6830 nM | CCc1cc2c(cc1-c1cc(OC)c3ncnn3c1)[nH]c(=O)n2[C@@H]1CCCN(C(C)C)C1 [Example 172, (R)-6-ethyl-1-(1-isopropylpiperidin-3-yl)-5-(8-methoxy-[1,2,4]triazolo[1,5-a]pyridin-6-yl)-1,3-dihydro-2H-benzo[d]imidazol-2-one]
0.08 nM | 5050 nM | Cc1c(-c2cc3[nH]c(=O)n([C@H]4CC[C@@H](NCC(C)(C)C)CC4)c3cc2C(C)C)cn2ncnc2c1C [Example 190, 5-(7,8-dimethyl-[1,2,4]triazolo[1,5-a]pyridin-6-yl)-6-isopropyl-1-((1s,4s)-4-(neopentylamino)cyclohexyl)-1,3-dihydro-2H-benzo[d]imidazol-2-one]
0.15 nM | 25100 nM | COc1cc(-c2cc3[nH]c(=O)n([C@@H]4CCCN(C5CCCOC5)C4)c3cc2C(C)C)cn2ncnc12 (single isomer, unassigned) [Example 219]
4.15 nM | 14200 nM | COCCN1CCC[C@@H](n2c(=O)[nH]c3cc(-c4cc(OC)c5ncnn5c4)c(C(C)C)cc32)C1 [Example 226, (R)-6-isopropyl-5-(8-methoxy-[1,2,4]triazolo[1,5-a]pyridin-6-yl)-1-(1-(2-methoxyethyl)piperidin-3-yl)-1,3-dihydro-2H-benzo[d]imidazol-2-one]
6.44 nM | 33500 nM | CCc1cc2c(cc1-c1cc(OC)c3ncnn3c1)[nH]c(=O)n2[C@@H]1CCCN(CCC(F)(F)F)C1 [Example 183, (R)-6-ethyl-5-(8-methoxy-[1,2,4]triazolo[1,5-a]pyridin-6-yl)-1-(1-(3,3,3-trifluoropropyl)piperidin-3-yl)-1,3-dihydro-2H-benzo[d]imidazol-2-one]
0.44 nM | 7780 nM | COc1cc(-c2cc3[nH]c(=O)n(C4CCC(N5CCCC5)CC4)c3cc2C(C)C)cn2ncnc12 (stereo not drawn) [Example 232, 6-isopropyl-5-(8-methoxy-[1,2,4]triazolo[1,5-a]pyridin-6-yl)-1-(4-(pyrrolidin-1-yl)cyclohexyl)-1,3-dihydro-2H-benzo[d]imidazol-2-one]
0.13 nM | 4430 nM | COc1cc(-c2cc3[nH]c(=O)n(C4CCC(N5CCC6(CC5)COC6)CC4)c3cc2C(C)C)cn2ncnc12 (stereo not drawn) [Example 240, 1-(4-(2-oxa-7-azaspiro[3.5]nonan-7-yl)cyclohexyl)-6-isopropyl-5-(8-methoxy-[1,2,4]triazolo[1,5-a]pyridin-6-yl)-1,3-dihydro-2H-benzo[d]imidazol-2-one]
22.9 nM | 5940 nM | Cc1cc2c(cc1-c1cc(C)c3ncnn3c1)[nH]c(=O)n2[C@@H]1CCCN(C)C1 [Example 15, (R)-6-methyl-5-(8-methyl-[1,2,4]triazolo[1,5-a]pyridin-6-yl)-1-(1-methylpiperidin-3-yl)-1,3-dihydro-2H-benzo[d]imidazol-2-one]
0.8 nM | 12800 nM | Cc1c(-c2cc3[nH]c(=O)n([C@H]4CC[C@@H](NC5CCOCC5)CC4)c3cc2C(C)C)cn2ncnc2c1C [Example 187, 5-(7,8-dimethyl-[1,2,4]triazolo[1,5-a]pyridin-6-yl)-6-isopropyl-1-((1s,4s)-4-((tetrahydro-2H-pyran-4-yl)amino)cyclohexyl)-1,3-dihydro-2H-benzo[d]imidazol-2-one]
2.48 nM | 6860 nM | CCCN1CCC[C@@H](n2c(=O)[nH]c3cc(-c4cc(OC)c5ncnn5c4)c(CC)cc32)C1 [Example 179, (R)-6-ethyl-5-(8-methoxy-[1,2,4]triazolo[1,5-a]pyridin-6-yl)-1-(1-propylpiperidin-3-yl)-1,3-dihydro-2H-benzo[d]imidazol-2-one]
0.33 nM | 11300 nM | COc1cc(-c2cc3[nH]c(=O)n(C4CCC(N5CC(OC)C5)CC4)c3cc2C(C)C)cn2ncnc12 (stereo not drawn) [Example 237, 6-isopropyl-5-(8-methoxy-[1,2,4]triazolo[1,5-a]pyridin-6-yl)-1-(4-(3-methoxyazetidin-1-yl)cyclohexyl)-1,3-dihydro-2H-benzo[d]imidazol-2-one]
81.5 nM | > 50000 nM | COc1cc(-c2cc3[nH]c(=O)n(C4CCC(N5CCNC(=O)C5)CC4)c3cc2C(C)C)cn2ncnc12 (stereo not drawn) [Example 243, 6-isopropyl-5-(8-methoxy-[1,2,4]triazolo[1,5-a]pyridin-6-yl)-1-(4-(3-oxopiperazin-1-yl)cyclohexyl)-1,3-dihydro-2H-benzo[d]imidazol-2-one]
0.05 nM | 8960 nM | COc1cc(-c2cc3[nH]c(=O)n([C@H]4CC[C@@H](NCC5CCOCC5)CC4)c3cc2C(C)C)cn2ncnc12 [Example 196, 6-isopropyl-5-(8-methoxy-[1,2,4]triazolo[1,5-a]pyridin-6-yl)-1-((1s,4s)-4-(((tetrahydro-2H-pyran-4-yl)methyl)amino)cyclohexyl)-1,3-dihydro-2H-benzo[d]imidazol-2-one]
0.95 nM | 22200 nM | Cc1c(-c2cc3[nH]c(=O)n([C@H]4CC[C@@H](NC5COC5)CC4)c3cc2C(C)C)cn2ncnc2c1C [Example 188, 5-(7,8-dimethyl-[1,2,4]triazolo[1,5-a]pyridin-6-yl)-6-isopropyl-1-((1s,4s)-4-(oxetan-3-ylamino)cyclohexyl)-1,3-dihydro-2H-benzo[d]imidazol-2-one]
2.23 nM | 7390 nM | CCc1cc2c(cc1-c1cc(OC)c3ncnn3c1)[nH]c(=O)n2[C@@H]1CCCN(CC2CCOCC2)C1 [Example 175, (R)-6-ethyl-5-(8-methoxy-[1,2,4]triazolo[1,5-a]pyridin-6-yl)-1-(1-((tetrahydro-2H-pyran-4-yl)methyl)piperidin-3-yl)-1,3-dihydro-2H-benzo[d]imidazol-2-one]
14.3 nM | 26600 nM | CCc1cc2c(cc1-c1cc(OC)c3ncnn3c1)[nH]c(=O)n2[C@@H]1CCCN(C2CCOCC2)C1 [Example 184, (R)-6-ethyl-5-(8-methoxy-[1,2,4]triazolo[1,5-a]pyridin-6-yl)-1-(1-(tetrahydro-2H-pyran-4-yl)piperidin-3-yl)-1,3-dihydro-2H-benzo[d]imidazol-2-one]
0.44 nM | 16600 nM | COc1cc(-c2cc3[nH]c(=O)n([C@H]4CC[C@@H](NC(C)C)CC4)c3cc2C(C)C)cn2ncnc12 [Example 192, 6-isopropyl-1-((1s,4s)-4-(isopropylamino)cyclohexyl)-5-(8-methoxy-[1,2,4]triazolo[1,5-a]pyridin-6-yl)-1,3-dihydro-2H-benzo[d]imidazol-2-one]
